Data set [1] has as its target T1, cdHDAC4wt (catalytic domain of human wild type histone deacetylase 4) (Homo sapiens, UniProt P56524).
T1 construct: consists of 410 amino acids (human HDAC4 T648-T1057) and has a molecular weight of 44.2 kDa; His6-SUMO (cleaved yes); made in house; host or cells: E. coli (BL21) DE3 pLysS, pET14b vector
The data set can be described thus: IC50 determination, enzyme activity assay with Boc-Lys{TFA}-AMC. In kind it is biochemical. Conditions: mean ± SD, N = 3. Here is the method:
Afterwards the enzymatic reaction was initiated by the addition of 20 µM Boc-Lys{TFA}-7-Amino-4-methylcoumarin (Bachem, Bubendorf, Switzerland) as substrate. […] The deacetylated substrate was converted into a fluorescent product by the addition of 0.4 mg/mL trypsin (AppliChem, Darmstadt, Germany). The release of fluorogenic substrate was followed in a microplate reader (PherStar Plus, BMG Labtech, Ortenberg, Germany) at 450 nm (λEx = 350 nm) and correlated to enzyme activity.
All incubations steps were performed for 60 min at 30 °C and 450 rpm.

For data set [2], the target named is T2, cdHDAC4wt (Homo sapiens, UniProt P56524).
T2 construct: consists of 410 amino acids (human HDAC4 T648-T1057) and has a molecular weight of 44.2 kDa; His6-SUMO (cleaved yes); made in house; host or cells: E. coli (BL21) DE3 pLysS, pET14b vector
The data set can be described thus: Association kinetics (semi continuous enzyme activity assay, kobs vs inhibitor concentration). The data set is classed as biochemical. Conditions: for residence time: 1/koff (two step) or 1/k−3 (one step), read-out: RT (KF), residence time from kinetic fit; for forward isomerization rate constant (k2) / koff / kon: two step model; for forward isomerization rate constant (k2) / koff: isomerization rate; for koff: y-axis intercept; for Ki: two step induced fit model, read-out: K1 (equilibrium constant of initial encounter complex); for y-intercept of kobs plot (k−3): linear regression; for y-intercept of kobs plot (k−3) / k3 / k−3: one step model; for k3: slope of kobs vs ligand concentration; for k−3: y-intercept. Here is the method:
A serial dilution of inhibitor beginning at 10-fold of respective IC50-value in assay buffer (25 mM Tris-HCl, pH 8.0, 75 mM KCl, 0.001% Pluronic F-127) was made in a black 96-well microtiter half-area plate (Greiner, Kremsmuenster, Austria). The dilutions were added to 3 nM cdHDAC4wt. Shortly after, the reaction was initiated by adding 20 µM Boc-Lys{TFA}-7-Amino-4-methylcoumarin (Bachem, Bubendorf, Switzerland) as substrate. […] Finally 0.4 mg/mL trypsin was added to split the deacetylated substrate in the fluorescent product which was measured at 450 nm (λEx = 350 nm) (PherStar Plus, BMG Labtech, Ortenberg, Germany). […] The standardized RFUs were plotted against the incubation time. […] Due to this knowledge the data were fitted via non linear regression with GraphPad Prism program to the following equation by Copeland [27]:(2) Y=νs·t+νi−νs/kobs·(1−e^(−kobs·t))+d where vi is the initial slope, vs is the second lower slope, kobs is the respective rate constant, t is time and d the correction for possible data offset.
Afterwards kobs values were plotted against their respective inhibitor concentration.

In data set [3] the target is T2, cdHDAC4wt. The data set can be described thus: Reversibility assay via rapid dilution; residence time from reversibility data. The data set is classed as biochemical. As to conditions: first order dissociation assumed; read-out: RT (RD), residence time from rapid dilution. How it is done:
Rapid dilution was performed by diluting the incubated mixture 100-fold with substrate (Boc-Lys{TFA}-7-Amino-4-methylcoumarin (Bachem, Bubendorf, Switzerland)) with the final substrate concentration being 20 µM. […] A positive control without TZD ligand and a blank without enzyme and TZD ligand were also carried out. […] Once again the final substrate concentration was 20 µM. […] The deacetylated substrate was converted into a fluorescent product by the addition of 0.4 mg/mL trypsin (AppliChem, Darmstadt, Germany). The release of fluorogenic substrate was followed in a microplate reader (PherStar Plus, BMG Labtech, Ortenberg, Germany) at 450 nm (λEx = 350 nm) and correlated the positive control. […] All incubations steps were performed for 60 min at 30 °C and 450 rpm. The substrate was preheated to 30 °C before the rapid dilution step.
The reciprocal values for k equals the residence time of the respective TZD ligand (residence time = koff^−1), which can be compared with the residence times gained from association data.

Data set [4] deals with T2, cdHDAC4wt. The data set is described as follows: Michaelis Menten kinetics for mode of action. The data set is classed as biochemical. Conditions: increasing Km, essentially unchanged vmax with increasing compound concentration.
Experimental: For E677A, F812A, C813S, F871A and H976Y (GoF) 5 nM enzyme were used. […] Signal was developed for 30 min at room temperature and the fluorescence was measured at 450 nm (λEx = 350 nm) in a PherStar Plus (BMG Labtech, Ortenberg, Germany) fluorescence plate reader. […] Afterwards, the product concentration was plotted against the time and v0 (µM/min) was calculated from the resulting slopes. Now the initial velocity was plotted against the substrate concentration and Km was calculated using a Michaelis Menten-Fit in GraphPad Prism. The value of vmax is neglected because enzyme concentration and purity are too inconsistent between the mutant variant to calculate this value appropriate.

As a reminder, the IC50 is the midpoint of a concentration-inhibition curve. Low readings indicate greater potency, high ones weaker potency. A word on the koff: it is the rate constant with which the complex falls apart. A higher koff goes with a short-lived complex. The term melting point denotes the temperature of the solid-liquid transition.

T2 sequence (P56524 648-1057): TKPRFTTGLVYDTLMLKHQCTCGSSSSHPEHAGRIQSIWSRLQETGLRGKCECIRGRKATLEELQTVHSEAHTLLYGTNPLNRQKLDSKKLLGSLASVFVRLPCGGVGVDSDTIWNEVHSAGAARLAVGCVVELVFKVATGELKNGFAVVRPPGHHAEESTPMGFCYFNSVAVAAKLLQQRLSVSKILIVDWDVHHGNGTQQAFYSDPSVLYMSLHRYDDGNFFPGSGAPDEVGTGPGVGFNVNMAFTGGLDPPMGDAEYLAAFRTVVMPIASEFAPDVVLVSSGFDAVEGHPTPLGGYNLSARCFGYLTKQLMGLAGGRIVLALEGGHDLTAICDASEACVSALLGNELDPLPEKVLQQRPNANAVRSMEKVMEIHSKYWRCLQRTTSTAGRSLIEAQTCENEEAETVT
T1 sequence (P56524 648-1057): as above

On to `O=C1NC(=O)/C(=C/c2ccc(OCC(=O)N3N=C(c4ccccc4)CC3c3ccc(C(F)(F)F)cc3)cc2)S1` (centres unmarked) [4d], for which inhibition in data set [1] was half-maximal at 0.79 ± 0.04 µM (IC50). Also, at cdHDAC4wt [2], the residence time was determined as 26 ± 11 min, the forward isomerization rate constant (k2) was determined as 0.008 ± 0.001 s⁻¹, the koff was 0.0006 ± 0.0003 s⁻¹ and the Ki came to 1.7 ± 0.7 µM. In addition, the kon entry at cdHDAC4wt [2] is recorded as “(8 ± 1) × 10^−3 s^−1”. Besides, the residence time on cdHDAC4wt [3] came out at 23 ± 6 min.

`O=C(COc1ccc(/C=C2\SC(=O)NC2=O)cn1)Nc1nc2ccccc2s1` [5w]: on cdHDAC4wt [2], the residence time stood at 19 ± 7 min, the “y-intercept of kobs plot (k−3)” value was “(8 ± 3) × 10^−4 s^−1”, the k3 worked out at 1900 ± 100 M⁻¹ s⁻¹ and the “k−3” value was 0.08 ± 0.03 s^−1 (×10^−2). Further, the residence time on cdHDAC4wt [3] came to 12 ± 3 min. On cdHDAC4wt [4], the mode of inhibition result is “competitive inhibitor”.

The compound `O=C(COc1ccc2cc(/C=C3\SC(=O)NC3=O)ccc2c1)Nc1ccc(C(F)(F)F)cc1` [7i] gave an IC50 in data set [1] of 1.3 ± 0.1 µM. For the same compound, on cdHDAC4wt [2], the residence time turned out to be 9.3 ± 0.5 min, the “y-intercept of kobs plot (k−3)” value was 0.0018 s⁻¹, the k3 was 100 ± 30 M⁻¹ s⁻¹ and the “k−3” value is 0.18 ± 0.01 s^−1 (×10^−2). The residence time on cdHDAC4wt [3] was found to be 17 ± 3 min.

`O=C(COc1ccc2cc(/C=C3\SC(=O)NC3=O)ccc2c1)Nc1ncccc1F` [7s] came in with an IC50 in data set [1] of 0.78 ± 0.08 µM. On cdHDAC4wt [2], the residence time was 10 ± 1 min, the “y-intercept of kobs plot (k−3)” value amounted to 0.0016 s⁻¹, the k3 was found to be 210 ± 40 M⁻¹ s⁻¹ and the “k−3” value is 0.16 ± 0.02 s^−1 (×10^−2). Moreover, the residence time at cdHDAC4wt [3] is 11 ± 1 min.

The compound `O=C1NC(=O)/C(=C/c2ccc3cc(OCC(=O)N4N=C(c5ccccc5)CC4c4ccccc4)ccc3c2)S1` (centres unmarked) [8a] registered an IC50 in data set [1] of 0.77 ± 0.09 µM. Besides, at cdHDAC4wt [2], the residence time turned out to be 11 ± 4 min, the forward isomerization rate constant (k2) is 0.0049 ± 0.0014 s⁻¹, the koff was found to be 0.0015 ± 0.0006 s⁻¹ and the Ki was 2.4 ± 1.8 µM. Also, the residence time at cdHDAC4wt [3] was 19 ± 2 min.

On to `O=C1NC(=O)/C(=C/c2ccc3cc(OCC(=O)N4N=C(c5ccccc5)CC4c4ccccc4F)ccc3c2)S1` (centres unmarked) [8b], for which, in data set [1], the IC50 worked out at 0.33 ± 0.02 µM. On cdHDAC4wt [2], the residence time turned out to be 11 ± 3 min, the forward isomerization rate constant (k2) is 0.003 ± 0.0006 s⁻¹, the koff was determined as 0.0015 ± 0.0004 s⁻¹ and the Ki turned out to be 0.65 ± 0.47 µM. Further, the residence time on cdHDAC4wt [3] came to 29 ± 3 min.

In turn, `O=C1NC(=O)/C(=C/c2ccc3cc(OCC(=O)N4N=C(c5ccccc5)CC4c4ccco4)ccc3c2)S1` (centres unmarked) [8c] registered an IC50 in data set [1] of 1.2 ± 0.1 µM. Further, on cdHDAC4wt [2], the residence time was found to be 12 ± 6 min, the forward isomerization rate constant (k2) worked out at 0.0021 ± 0.0009 s⁻¹, the koff was determined as 0.0014 ± 0.0007 s⁻¹ and the kon result is recorded as “(2.1 ± 0.9) × 10^−3 s^−1”. In addition, the residence time on cdHDAC4wt [3] was 12 ± 1 min.

`Cc1ccc(C2CC(c3ccccc3)=NN2C(=O)COc2ccc3cc(/C=C4\SC(=O)NC4=O)ccc3c2)cc1` (centres unmarked) [8g]: inhibition in data set [1] was half-maximal at 0.76 ± 0.08 µM (IC50). For the same compound, on cdHDAC4wt [2], the residence time was 10 ± 2 min, the forward isomerization rate constant (k2) worked out at 0.0038 ± 0.0007 s⁻¹, the off-rate (koff) was found to be 0.0016 ± 0.0003 s⁻¹ and the Ki is 3 ± 2 µM. In addition, the residence time at cdHDAC4wt [3] was 18 ± 7 min.

In turn, `O=C1NC(=O)/C(=C/c2ccc3cc(OCC(=O)N4N=C(c5ccccc5)CC4c4cccs4)ccc3c2)S1` (centres unmarked) [8i] came in with an IC50 in data set [1] of 0.34 ± 0.04 µM. Besides, at cdHDAC4wt [2], the residence time stood at 14 ± 4 min, the forward isomerization rate constant (k2) was 0.0054 ± 0.0005 s⁻¹, the koff is 0.0012 ± 0.0003 s⁻¹ and the Ki turned out to be 0.65 ± 0.31 µM. In addition, the kon entry at cdHDAC4wt [2] is “(5.4 ± 0.5) × 10^−3 s^−1”. Moreover, the residence time on cdHDAC4wt [3] was 13 ± 8 min.

As for `O=C1NC(=O)/C(=C/c2ccc(OCC(=O)N3N=C(c4ccc(F)cc4)CC3c3ccc(Cl)c(Cl)c3)cc2)S1` (centres unmarked) [12j], in data set [1], the IC50 was 0.83 ± 0.02 µM. In addition, on cdHDAC4wt [2], the residence time is 9 ± 3 min, the forward isomerization rate constant (k2) came to 0.0031 ± 0.0007 s⁻¹ and the koff is 0.0018 ± 0.0005 s⁻¹. Also, the residence time on cdHDAC4wt [3] is 11 ± 5 min.

Consider `O=C1NC(=O)/C(=C/c2ccc3cc(OCC(=O)N4N=C(c5ccc(F)cc5)CC4c4ccco4)ccc3c2)S1` (centres unmarked) [16c], for which, in data set [1], the IC50 was 1.4 ± 0.2 µM. The compound also yielded a forward isomerization rate constant (k2) on cdHDAC4wt [2] of 0.0035 ± 0.0018 s⁻¹. In addition, the residence time at cdHDAC4wt [3] was determined as 21 ± 7 min.

`Cc1ccc(C2CC(c3ccc(F)cc3)=NN2C(=O)COc2ccc3cc(/C=C4\SC(=O)NC4=O)ccc3c2)cc1` (centres unmarked) [16g] showed a half-inhibitory concentration (IC50) in data set [1] of 0.46 ± 0.06 µM. Also, the forward isomerization rate constant (k2) at cdHDAC4wt [2] came to 0.0051 ± 0.0011 s⁻¹. Also, at cdHDAC4wt [3], the residence time stood at 15 ± 2 min.

`O=C(CN1C(=O)SC(=Cc2ccc(Cl)cc2)C1=O)Nc1nc2ccc(F)cc2s1` [GB33, 2-(5-(4-chlorobenzylidene)-2,4-dioxothiazolidin-3-yl)-N-(6-fluorobenzo[d]thiazol-2-yl)acetamide]: the melting point is 290 to 292 °C.

With `O=C(CN1C(=O)SC(=Cc2ccc(F)cc2)C1=O)Nc1nc2ccc(F)cc2s1` [GB34, N-(6-fluorobenzo[d]thiazol-2-yl)-2-(5-(4-fluorobenzylidene)-2,4-dioxothiazolidin-3-yl)acetamide], the melting point is 260 to 262 °C.

`COc1cccc2sc(NC(=O)CN3C(=O)SC(=Cc4ccc(F)cc4)C3=O)nc12` [GB35, 2-(5-(4-fluorobenzylidene)-2,4-dioxothiazolidin-3-yl)-N-(4-methoxybenzo[d]thiazol-2-yl)acetamide] displayed a melting point of 172 °C.

With `Cc1cccc2sc(NC(=O)CN3C(=O)SC(=Cc4ccccn4)C3=O)nc12` [PB2, 2-(2,4-dioxo-5-(pyridin-2-ylmethylene)thiazolidin-3-yl)-N-(4-methylbenzo[d]thiazol-2-yl)acetamide], the melting point is 260 °C (dec.).

Consider `O=C(CN1C(=O)SC(=Cc2ccccn2)C1=O)Nc1nc2c(Cl)cccc2s1` [PB4, N-(4-chlorobenzo[d]thiazol-2-yl)-2-(2,4-dioxo-5-(pyridin-2-ylmethylene)thiazolidin-3-yl)acetamide], for which the melting point was 273 °C (dec.).

Take `O=C(CN1C(=O)SC(=Cc2ccccn2)C1=O)Nc1nc2c(F)cc(F)cc2s1` [PB5, N-(4,6-difluorobenzo[d]thiazol-2-yl)-2-(2,4-dioxo-5-(pyridin-2-ylmethylene)thiazolidin-3-yl)acetamide]: the melting point was 294 °C (dec.).

In the case of `Cc1cc2nc(NC(=O)CN3C(=O)SC(=Cc4ccccn4)C3=O)sc2cc1C` [PB6, N-(5,6-dimethylbenzo[d]thiazol-2-yl)-2-(2,4-dioxo-5-(pyridin-2-ylmethylene)thiazolidin-3-yl)acetamide], the melting point is 295 °C (dec.).

For `COc1cccc2sc(NC(=O)CN3C(=O)SC(=Cc4ccccn4)C3=O)nc12` [PB7, 2-(2,4-dioxo-5-(pyridin-2-ylmethylene)thiazolidin-3-yl)-N-(4-methoxybenzo[d]thiazol-2-yl)acetamide], the melting point lay in the range of 220 to 222 °C.

As for `CCOc1ccc2nc(NC(=O)CN3C(=O)SC(=Cc4ccccn4)C3=O)sc2c1` [PB8, 2-(2,4-dioxo-5-(pyridin-2-ylmethylene)thiazolidin-3-yl)-N-(6-ethoxybenzo[d]thiazol-2-yl)acetamide], the melting point was 230 °C (dec.).

Take `O=C(CN1C(=O)SC(=Cc2ccccn2)C1=O)Nc1nc2ccc(F)cc2s1` [PB9, 2-(2,4-dioxo-5-(pyridin-2-ylmethylene)thiazolidin-3-yl)-N-(6-fluorobenzo[d]thiazol-2-yl)acetamide]: the melting point was 265 °C (dec.).

Values taken from PMC8537711, “Mechanistic Insights into Binding of Ligands with Thiazolidinedione Warhead to Human Histone Deacetylase 4” (Pharmaceuticals, 2021).
